Source: ChEMBL document CHEMBL4043216, “Design and synthesis of benzoacridines as estrogenic and anti-estrogenic agents” (Bioorg Med Chem, 2017)
Counter-ions that a name gives are not always drawn. Active and inactive are the calls of the source. The rule behind the calls is not given here.

Tests used:
Estrogen receptor beta [1] = molecular target: T1, Estrogen receptor beta (Homo sapiens, UniProt Q92731)
Description: (§1) Displacement of [3H]E2 from GST-fused ERbeta-LBD (unknown origin) expressed in Escherichia coli BL21 incubated for 1 hr by liquid scintillation counting method

in vitro = conditions: human
Description: Cytotoxicity in human MCF7 cells assessed as maximum drug level not causing reduction in cell viability incubated for 6 days by acid red-52 staining based assay

[2] = molecular target: T2, Estrogen-related receptor gamma (Homo sapiens, UniProt P62508)
T2 sequence (P62508 whole entry): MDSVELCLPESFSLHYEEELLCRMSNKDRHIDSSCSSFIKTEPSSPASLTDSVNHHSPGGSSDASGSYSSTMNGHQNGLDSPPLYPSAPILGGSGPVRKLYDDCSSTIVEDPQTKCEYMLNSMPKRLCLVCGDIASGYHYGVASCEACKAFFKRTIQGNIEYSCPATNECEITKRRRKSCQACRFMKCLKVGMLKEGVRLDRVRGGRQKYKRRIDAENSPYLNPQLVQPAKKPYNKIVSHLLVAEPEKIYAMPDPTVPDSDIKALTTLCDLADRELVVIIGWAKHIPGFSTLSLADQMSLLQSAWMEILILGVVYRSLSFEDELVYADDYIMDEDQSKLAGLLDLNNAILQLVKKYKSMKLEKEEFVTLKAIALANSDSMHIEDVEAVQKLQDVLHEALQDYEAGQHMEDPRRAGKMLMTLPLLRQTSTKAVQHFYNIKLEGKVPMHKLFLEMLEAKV
Description: Binding affinity to human ERRgamma

Estrogen receptor [3] = molecular target: T3, Estrogen receptor (Homo sapiens, UniProt P03372)
T3 sequence (P03372 whole entry): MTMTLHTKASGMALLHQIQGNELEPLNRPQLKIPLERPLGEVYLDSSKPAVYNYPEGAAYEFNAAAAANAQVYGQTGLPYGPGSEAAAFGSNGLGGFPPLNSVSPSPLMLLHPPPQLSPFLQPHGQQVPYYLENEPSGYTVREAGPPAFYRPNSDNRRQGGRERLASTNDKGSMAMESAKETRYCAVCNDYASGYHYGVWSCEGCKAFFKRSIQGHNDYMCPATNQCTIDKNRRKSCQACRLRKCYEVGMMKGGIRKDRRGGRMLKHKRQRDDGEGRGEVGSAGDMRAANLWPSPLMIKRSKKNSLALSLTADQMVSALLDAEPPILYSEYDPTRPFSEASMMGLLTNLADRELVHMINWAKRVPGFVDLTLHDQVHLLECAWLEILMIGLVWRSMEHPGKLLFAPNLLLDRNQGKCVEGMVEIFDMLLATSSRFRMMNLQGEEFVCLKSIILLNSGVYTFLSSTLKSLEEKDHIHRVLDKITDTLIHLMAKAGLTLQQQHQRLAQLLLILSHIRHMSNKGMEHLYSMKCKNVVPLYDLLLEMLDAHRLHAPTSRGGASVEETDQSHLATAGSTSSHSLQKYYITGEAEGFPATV
Description: Agonist activity at full length ERalpha (unknown origin) expressed in human HeLa cells incubated for 24 hrs by ERE-driven luciferase reporter gene assay

Estrogen receptor [4] = molecular target: T3, Estrogen receptor; remark: listed apart in the source
Description: Displacement of [3H]E2 from GST-fused ERalpha-LBD (unknown origin) expressed in Escherichia coli BL21 incubated for 1 hr by liquid scintillation counting method

[5] = molecular target: T4, Estrogen receptor (Homo sapiens) (UniProt P03372); assay: Antagonist activity at full length ERalpha (unknown origin) expressed in human HeLa cells up to 10 uM incubated for 24 hrs by ERE-driven luciferase reporter gene assay; assay type: cell-based
T4 sequence (whole entry): T3 sequence (P03372 whole entry)

MCF7 = assay: cells; assay type: functional, cell-based; conditions: Homo sapiens, MCF7, 144 h
Description: Inhibition of 17-beta estradiol-induced cell proliferation in human MCF7 cells incubated for 6 days by acid red-52 staining based assay

Estrogen receptor [6] = molecular target: T3, Estrogen receptor; remark: listed apart in the source
Description: Antagonist activity at full length ERalpha (unknown origin) expressed in human HeLa cells incubated for 24 hrs by ERE-driven luciferase reporter gene assay

Estrogen receptor beta [7] = molecular target: T1, Estrogen receptor beta; remark: listed apart in the source
Description: as §1

Estrogen receptor beta [8] = molecular target: T1, Estrogen receptor beta; assay: Antagonist activity at full length ERbeta (unknown origin) expressed in human HeLa cells incubated for 24 hrs by ERE-driven luciferase reporter gene assay
Estrogen receptor beta [9] = molecular target: T1, Estrogen receptor beta; assay: Antagonist activity at full length ERbeta (unknown origin) expressed in human HeLa cells assessed as reduction in 17-beta estradiol-induced response at 10^-5M incubated for 24 hrs by ERE-driven luciferase reporter gene assay relative to untreated control; assay type: cell-based

T1 sequence (Q92731 whole entry): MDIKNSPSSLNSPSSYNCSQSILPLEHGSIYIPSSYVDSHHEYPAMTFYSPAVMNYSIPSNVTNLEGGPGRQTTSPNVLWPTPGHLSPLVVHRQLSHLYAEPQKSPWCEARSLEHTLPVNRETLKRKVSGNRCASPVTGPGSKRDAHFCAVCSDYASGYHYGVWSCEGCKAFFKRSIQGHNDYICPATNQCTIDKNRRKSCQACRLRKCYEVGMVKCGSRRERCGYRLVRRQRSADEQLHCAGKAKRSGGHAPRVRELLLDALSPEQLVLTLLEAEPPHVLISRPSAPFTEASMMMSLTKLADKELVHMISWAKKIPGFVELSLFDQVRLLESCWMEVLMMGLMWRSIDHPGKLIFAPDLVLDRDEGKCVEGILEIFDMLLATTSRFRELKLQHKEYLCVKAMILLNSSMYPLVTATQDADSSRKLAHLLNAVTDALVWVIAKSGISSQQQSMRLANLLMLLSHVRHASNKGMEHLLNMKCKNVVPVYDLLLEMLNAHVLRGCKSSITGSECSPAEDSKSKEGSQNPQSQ

SMILES	IC50 (Estrogen receptor beta [1]) [nM]	MNTC at 144 h (in vitro; MCF7 cells) [µM]	IC50 [2]	IC50 (Estrogen receptor [4]) [nM]	IC50 (MCF7) [nM]	further results
Cl.Oc1cccc2c(-c3ccccc3)c3cc4ccccc4cc3nc12	939	> 10	Not Active	1080	–	EC50 (Estrogen receptor [3]): 1330 nM; inhibition [5]: inactive
FC(F)(F)c1ccc(-c2c3ccc(C(F)(F)F)cc3nc3cc4ccc(C(F)(F)F)cc4cc23)cc1	–	> 1	–	–	–	–
c1ccc(-c2c3ccccc3nc3ccccc23)cc1	–	> 100	–	–	–	–
COc1ccc2c(-c3ccc(C(F)(F)F)cc3)c3cc4cc(C(F)(F)F)ccc4cc3nc2c1	–	> 10	–	–	–	–
c1ccc2nc3ccccc3cc2c1	–	> 10	–	–	–	–
Cl.Clc1ccc2c(-c3ccccc3)c3cc4ccccc4cc3nc2c1	1980	> 100	Not Active	1650	19600	–
Cl.Clc1c2ccccc2cc2c(-c3ccccc3)c3ccccc3nc12	2520	> 10	Not Active	1680	9070	–
Cl.FC(F)(F)c1ccc2cc3nc4ccccc4c(-c4ccccc4)c3cc2c1	–	> 10	Not Active	3510	9240	IC50 (Estrogen receptor [6]): 5340 nM; IC50 (Estrogen receptor beta [7]): Not Active
CC/C(=C(\c1ccccc1)c1ccc(OCCN(C)C)cc1)c1ccccc1 [TAMOXIFEN CITRATE]	–	–	–	–	–	MNTC at 144 h (in vitro; mcf7): > 10 µM
COc1ccc2c(-c3ccccc3)c3cc4ccccc4cc3nc2c1	–	> 1	–	–	–	–
Cl.Oc1ccc2c(-c3ccccc3)c3cc4ccccc4cc3nc2c1	306	> 1	Not Active	294	–	EC50 (Estrogen receptor [3]): 7400 nM; inhibition (Estrogen receptor beta [8]): Active; inhibition [5]: inactive
COc1ccc2cc3nc4ccccc4c(-c4ccccc4)c3cc2c1	–	> 10	–	–	–	–
Cl.Oc1ccc2cc3nc4ccccc4c(-c4ccccc4)c3cc2c1	154	> 10	Not Active	169	–	fold change (FC) (Estrogen receptor beta [9]): 6; EC50 (Estrogen receptor [3]): 1440 nM; inhibition (Estrogen receptor beta [8]): Active; inhibition [5]: inactive
c1ccc(-c2c3ccccc3nc3nc4ccccc4cc23)cc1	–	–	–	–	951	–
N#Cc1c2ccccc2cc2c(-c3ccccc3)c3ccccc3nc12	–	> 100	–	–	–	–
FC(F)(F)c1ccc(-c2c3ccccc3nc3cc4ccc(C(F)(F)F)cc4cc23)cc1	–	> 10	–	–	9240	–
FC(F)(F)c1ccc2nc3cc4ccccc4cc3c(-c3ccccc3)c2c1	–	> 10	–	–	–	–
Cl.FC(F)(F)c1cccc2c(-c3ccccc3)c3cc4ccccc4cc3nc12	–	> 10	Not Active	2650	3980	IC50 (Estrogen receptor beta [7]): Not Active
COc1cccc2c(-c3ccccc3)c3cc4ccccc4cc3nc12	–	> 10	–	–	–	–
Cl.c1ccc(-c2c3ccccc3nc3cc4ccccc4cc23)cc1	1690	> 10	Not Active	915	4950	IC50 (Estrogen receptor [6]): 9390 nM
